The source made the active and inactive calls.
Legend:
[1] = Antiviral activity against HSV infected in human HT-1080 cells assessed as reduction viral RNA expression pretreated for 1 hr followed by infection measured after 18 hrs by qRT-PCR analysis; type: functional, cell-based; conditions: Herpes simplex virus unknown type
[2] = target: Stimulator of interferon genes protein (Homo sapiens) (UniProt Q86WV6); experiment: Induction of STING-dependent gene expression in human HT-1080 cells assessed as increase in […] induced IFNbeta mRNA expression at 20 uM incubated for 8 hrs by qRT-PCR analysis; type: cell-based; conditions: filed as agonist
[3] = target: Stimulator of interferon genes protein (Homo sapiens) (UniProt Q86WV6); experiment: Induction of STING-dependent gene expression in human THP1 cells assessed as TNFalpha mRNA expression at 2.5 to 20 uM incubated for 8 hrs by qRT-PCR analysis; type: cell-based; conditions: THP-1, filed as agonist, dose 2.5-20 µM
[4] = target: Stimulator of interferon genes protein (Homo sapiens) (UniProt Q86WV6); experiment: Agonist activity at STING in human HT-1080 cells assessed as increase in ADU-S100-induced TBK1 phosphorylation at 2.5 to 20 uM measured after 5 hrs by Western blot analysis; type: cell-based; conditions: filed as agonist, dose 2.5-20 µM
[5] = tested on: Herpes simplex virus unknown type; experiment: Antiviral activity against HSV infected in human HT-1080 cells assessed as reduction viral protein ICP0 expression at 2.5 to 20 uM pretreated for 1 hr followed by infection measured after 18 hrs by Western blot analysis; type: functional, cell-based; conditions: dose 2.5-20 µM, time 19.0 hrs
RAW264.7 [6] = experiment: Cytotoxicity against mouse RAW264.7 cells assessed as cell viability measured after 72 hrs by MTT assay; type: functional, cell-based; conditions: RAW264.7, 72 h
HT-1080 [7] = experiment: Synergistic increase in […]-induced TBK1 phosphorylation in human HT-1080 cells by Western blot analysis; type: functional, cell-based
BMDM = experiment: Effect on STING level in mouse BMDM cells at 2.5 to 20 uM incubated for 8 hrs by Western blot analysis; type: functional, cell-based; conditions: dose 2.5-20 µM
[8] = tested on: Stimulator of interferon genes protein (Homo sapiens), Q86WV6 [C148A]; experiment: Induction of STING C148A mutant (unknown origin) mediated TBK1 phosphorylation in human HeLa cells transfected with STING C148A mutant at 10 uM measured after 5 hr by Western blot analysis; type: cell-based; conditions: filed as agonist
[9] = tested on: Stimulator of interferon genes protein (Homo sapiens), Q86WV6 [C91S]; experiment: Induction of oligomerization of STING C91S (unknown origin) mutant in human HeLa cells transfected with wild type STING assessed as intracellular puncta formation at 10 uM measured after 1 hr by DAPI staining based immunofluorescence microscopy; type: cell-based; conditions: filed as agonist
[10] = target: Stimulator of interferon genes protein (Homo sapiens) (UniProt Q86WV6); experiment: Induction of STING-dependent gene expression in human HT-1080 cells assessed as increase in ADU-S100 induced IFNbeta mRNA expression at 20 uM incubated for 8 hrs by qRT-PCR analysis; type: cell-based; conditions: filed as agonist
[11] = target: Stimulator of interferon genes protein (Homo sapiens) (UniProt Q86WV6); experiment: Induction of STING-dependent gene expression in human HT-1080 cells assessed as TNFalpha mRNA expression at 20 uM incubated for 8 hrs by qRT-PCR analysis; type: cell-based; conditions: filed as agonist
[12] = target: Stimulator of interferon genes protein (Homo sapiens) (UniProt Q86WV6); experiment: Induction of STING dimerization in human HT-1080 cells at 2.5 to 20 uM measured after 5 hrs by Western blot analysis; type: cell-based; conditions: filed as agonist, dose 2.5-20 µM
[13] = target: Stimulator of interferon genes protein (Homo sapiens) (UniProt Q86WV6); experiment: Induction of STING-dependent gene expression in human HT-1080 cells assessed as IFNbeta mRNA expression at 20 uM incubated for 8 hrs by qRT-PCR analysis; type: cell-based; conditions: filed as agonist
[14] = tested on: Stimulator of interferon genes protein (Homo sapiens), Q86WV6 [C88S,C91S]; experiment: Induction of oligomerization of STING C88S/C91S (unknown origin) double mutant in human HeLa cells transfected with wild type STING assessed as intracellular puncta formation at 10 uM measured after 1 hr by DAPI staining based immunofluorescence microscopy; type: cell-based; conditions: filed as agonist
[15] = target: Stimulator of interferon genes protein (Homo sapiens) (UniProt Q86WV6); experiment: Induction of STING dimerization in human THP1 cells at 2.5 to 20 uM measured after 5 hrs by Western blot analysis; type: cell-based; conditions: THP-1, filed as agonist, dose 2.5-20 µM
HT-1080 [16] = experiment: Cytotoxicity against human HT-1080 cells assessed as cell viability measured after 72 hrs by MTT assay; type: functional, cell-based; conditions: HT-1080, 72 h
[17] = target: Stimulator of interferon genes protein (Homo sapiens) (UniProt Q86WV6); experiment: Agonist activity at STING in human HT-1080 cells assessed as increase in TBK1 phosphorylation at 2.5 to 20 uM measured after 5 hrs by Western blot analysis; type: cell-based; conditions: filed as agonist, dose 2.5-20 µM
[18] = target: Stimulator of interferon genes protein (Homo sapiens) (UniProt Q86WV6); experiment: Agonist activity at STING in human THP1 cells assessed as increase in TBK1 phosphorylation at 2.5 to 20 uM measured after 5 hrs by Western blot analysis; type: cell-based; conditions: THP-1, filed as agonist, dose 2.5-20 µM
[19] = target: T1, Stimulator of interferon genes protein (Mus musculus) (UniProt Q3TBT3); experiment: Agonist activity at STING in mouse BMDM cells assessed as increase in TBK1 phosphorylation at 2.5 to 20 uM measured after 5 hrs by Western blot analysis; type: cell-based; conditions: filed as agonist, dose 2.5-20 µM
T1 sequence (whole entry): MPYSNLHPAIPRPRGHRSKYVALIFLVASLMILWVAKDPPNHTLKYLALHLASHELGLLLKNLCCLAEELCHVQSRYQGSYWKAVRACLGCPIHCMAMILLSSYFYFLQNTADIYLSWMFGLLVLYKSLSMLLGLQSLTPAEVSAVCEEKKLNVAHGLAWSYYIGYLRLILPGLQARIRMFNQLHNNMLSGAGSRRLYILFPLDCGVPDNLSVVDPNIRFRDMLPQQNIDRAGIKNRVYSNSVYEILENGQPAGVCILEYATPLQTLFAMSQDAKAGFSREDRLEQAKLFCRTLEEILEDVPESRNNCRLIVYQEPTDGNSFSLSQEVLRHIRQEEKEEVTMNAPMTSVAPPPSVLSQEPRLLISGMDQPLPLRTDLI

HT-1080 [20] = experiment: Effect on TBK1 phosphorylation in STING - knockout human HT1080 cells at 20 uM measured after 5 hrs by Western blot analysis; type: functional, cell-based
Mus musculus [21] = experiment: Induction of immune-activation effect in wild type female BALB/c mouse assessed as increase in serum IFNbeta level at 15 to 30 mg/kg, ip measured after 24 to 48 hrs by ELISA relative to control; type: functional, organism-based; conditions: dose 15-30 mg/kg, time 24-48 hrs
[22] = target: Stimulator of interferon genes protein (Homo sapiens) (UniProt Q86WV6); experiment: Induction of STING-dependent gene expression in human HT-1080 cells assessed as increase in diABZI induced IFNbeta mRNA expression at 20 uM incubated for 8 hrs by qRT-PCR analysis; type: cell-based; conditions: filed as agonist
HEK-293T = experiment: Cytotoxicity against STING-deficient human 293T cells assessed as cell viability measured after 72 hrs by MTT assay; type: functional, cell-based
[23] = target: Stimulator of interferon genes protein (Homo sapiens) (UniProt Q86WV6); experiment: Induction of oligomerization of STING in human HeLa cells transfected with wild type STING (unknown origin) assessed as intracellular puncta formation at 10 uM measured after 1 hr by DAPI staining based immunofluorescence microscopy; type: cell-based; conditions: filed as agonist
THP-1 = experiment: Effect on STING level in human THP1 cells at 2.5 to 20 uM incubated for 8 hrs by Western blot analysis; type: functional, cell-based; conditions: dose 2.5-20 µM
HT-1080 [24] = experiment: Synergistic increase in HSV infection-induced TBK1 phosphorylation in human HT-1080 cells by Western blot analysis; type: functional, cell-based
RAW264.7 [25] = experiment: Synergistic increase in […]-induced TBK1 phosphorylation in mouse RAW264.7 cells by Western blot analysis; type: functional, cell-based
[26] = target: T1, Stimulator of interferon genes protein (Mus musculus); experiment: Agonist activity at STING in mouse embryonic fibroblast cells assessed as increase in TBK1 phosphorylation at 2.5 to 20 uM measured after 5 hrs by Western blot analysis; type: cell-based; conditions: MEF, filed as agonist, dose 2.5-20 µM
RAW264.7 [27] = experiment: Synergistic increase in HSV infection-induced TBK1 phosphorylation in mouse RAW264.7 cells by Western blot analysis; type: functional, cell-based
Vero = experiment: Cytotoxicity against interferon production defective African green monkey Vero cells assessed as cell viability measured after 72 hrs by MTT assay; type: functional, cell-based; conditions: Chlorocebus sabaeus
SARS-CoV-2 = experiment: Antiviral activity against SARS-CoV-2 assessed as inhibition of replication by qRT-PCR analysis; type: functional, organism-based; conditions: Severe acute respiratory syndrome coronavirus 2
[28] = Antiviral activity against rhesus rotavirus assessed as inhibition of replication by qRT-PCR analysis; type: functional, Simian rotavirus A strain RRV
[29] = target: Stimulator of interferon genes protein (Homo sapiens) (UniProt Q86WV6); experiment: Agonist activity at STING in human HT-1080 cells assessed as increase in diABZI-induced TBK1 phosphorylation at 2.5 to 20 uM measured after 5 hrs by Western blot analysis; type: cell-based; conditions: filed as agonist, dose 2.5-20 µM
[30] = target: Stimulator of interferon genes protein (Homo sapiens) (UniProt Q86WV6); experiment: Induction of wild type STING dimerization in human HeLa cells transfected with wild type STING at 10 uM measured after 5 hr by Western blot analysis; type: cell-based; conditions: filed as agonist
[31] = target: Stimulator of interferon genes protein (Homo sapiens) (UniProt Q86WV6); experiment: Induction of STING-dependent gene expression in human THP1 cells assessed as IFNbeta mRNA expression at 2.5 to 20 uM incubated for 8 hrs by qRT-PCR analysis; type: cell-based; conditions: THP-1, filed as agonist, dose 2.5-20 µM
[32] = tested on: Stimulator of interferon genes protein (Homo sapiens), Q86WV6 [V113Q,G114Q,P115Q]; experiment: Induction of STING V113Q/G114Q/P115Q mutant (unknown origin) mediated TBK1 phosphorylation in human HeLa cells transfected with STING C148A mutant at 10 uM measured after 5 hr by Western blot analysis; type: cell-based; conditions: filed as agonist
Mus musculus [33] = experiment: Induction of immune-activation effect in wild type female BALB/c mouse assessed as increase in serum TNFalpha level at 15 to 30 mg/kg, ip measured after 24 to 48 hrs by ELISA relative to control; type: functional, organism-based; conditions: dose 15-30 mg/kg, time 24-48 hrs
[34] = target: Stimulator of interferon genes protein (Homo sapiens) (UniProt Q86WV6); experiment: Induction of wild type STING mediated TBK1 phosphorylation in human HeLa cells transfected with wild type STING at 10 uM measured after 5 hr by Western blot analysis; type: cell-based; conditions: filed as agonist
[35] = target: T1, Stimulator of interferon genes protein (Mus musculus); experiment: Induction of STING dimerization in mouse BMDM cells at 2.5 to 20 uM measured after 5 hrs by Western blot analysis; type: cell-based; conditions: filed as agonist, dose 2.5-20 µM
[36] = target: Stimulator of interferon genes protein (Homo sapiens) (UniProt Q86WV6); experiment: Agonist activity at STING in human HT-1080 cells assessed as increase in TBK1 phosphorylation at 20 uM measured after 5 hrs by Western blot analysis; type: cell-based; conditions: filed as agonist
[37] = target: T1, Stimulator of interferon genes protein (Mus musculus); experiment: Induction of STING dimerization in mouse embryonic fibroblast cells at 2.5 to 20 uM measured after 5 hrs by Western blot analysis; type: cell-based; conditions: MEF, filed as agonist, dose 2.5-20 µM

Sequence of Stimulator of interferon genes protein (Homo sapiens) (Q86WV6 whole entry): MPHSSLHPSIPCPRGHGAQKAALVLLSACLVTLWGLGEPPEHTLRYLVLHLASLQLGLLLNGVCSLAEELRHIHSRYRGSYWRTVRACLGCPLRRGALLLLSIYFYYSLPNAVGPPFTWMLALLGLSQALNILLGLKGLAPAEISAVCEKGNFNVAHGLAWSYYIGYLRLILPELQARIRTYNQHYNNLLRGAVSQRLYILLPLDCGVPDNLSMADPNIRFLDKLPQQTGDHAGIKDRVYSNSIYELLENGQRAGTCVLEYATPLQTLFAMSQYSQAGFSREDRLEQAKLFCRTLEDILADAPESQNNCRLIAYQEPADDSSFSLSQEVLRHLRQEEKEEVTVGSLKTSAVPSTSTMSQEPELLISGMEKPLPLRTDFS
Sequence of Stimulator of interferon genes protein (Homo sapiens), Q86WV6 [V113Q,G114Q,P115Q] (Q86WV6 whole entry V113Q/G114Q/P115Q): as the sequence (Q86WV6 whole entry) above, with V113Q, G114Q, P115Q counted along it
Sequence of Stimulator of interferon genes protein (Homo sapiens), Q86WV6 [C88S,C91S] (Q86WV6 whole entry C88S/C91S): as the sequence (Q86WV6 whole entry) above, with C88S, C91S counted along it
Sequence of Stimulator of interferon genes protein (Homo sapiens), Q86WV6 [C91S] (Q86WV6 whole entry C91S): as the sequence (Q86WV6 whole entry) above, with C91S counted along it
Sequence of Stimulator of interferon genes protein (Homo sapiens), Q86WV6 [C148A] (Q86WV6 whole entry C148A): as the sequence (Q86WV6 whole entry) above, with C148A counted along it

O=C(NCCCCCNC(=O)c1ccc([N+](=O)[O-])o1)c1ccc([N+](=O)[O-])o1
6.8 µM: EC50 [28]
6.15 µM: EC50 [1]
8.69 µM: IC50 (RAW264.7 [6])
active: Activity [2] | Activity [3] | Activity [4] | Activity [5] | Activity (HT-1080 [7]) | Activity [8] | Activity [9] | Activity [10] | Activity [11] | Activity [12] | Activity [13] | Activity [14] | Activity [15] | Activity [17] | Activity [18] | Activity [19] | Activity (Mus musculus [21]) | Activity [22] | Activity [23] | Activity (RAW264.7 [25]) | Activity [26] | Activity (RAW264.7 [27]) | Activity [29] | Activity [30] | Activity [31] | Activity [32] | Activity (Mus musculus [33]) | Activity [34] | Activity [35] | Activity [36] | Activity [37]
9.31 µM: IC50 (HT-1080 [16])
inactive: Activity (BMDM) | Activity (HT-1080 [20]) | Activity (THP-1) | Activity (HT-1080 [24])
22.4 µM: IC50 (HEK-293T)
10.7 µM: EC50 (SARS-CoV-2)
28.4 µM: IC50 (Vero)
